Here are results for ten molecules from article PMC11323243, “Novel Inhibitors of SARS-CoV-2 RNA Identified through Virtual Screening” (Journal of Chemical Information and Modeling, 2024).

“Also recorded” adds a separate entry of the source.

In data set [1] the test system is Omicron (BA.1) SARS-CoV-2. Kind of data set: Antiviral activity, plaque reduction assay on Vero E6 cells. Type of data set: cell-based. To be noted: CC50/EC50, Vero E6 cells. A general note: Plaque reduction counts the foci of infection that form in a cell layer.
Data set [2] can be described thus: Cell viability (MTT) after 3 days of exposure. In kind it is cell-based. To be noted: African green monkey, Vero E6 cells, read-out: CC50, concentration reducing cell viability by 50%.
In data set [3] the test system is −1PRF element of SARS-CoV-2. Briefly: Dual-luciferase assay measuring frameshift efficiency. Type of data set: cell-based. The conditions noted are these: Vero E6 cells; for effect on frameshift efficiency (in words): dual-luciferase assay; for reduction of frameshift efficiency: single nontoxic dose.
Data set [4] concerns −1PRF element of SARS-CoV-2. The conditions noted are these: previously identified; cited from earlier work.

Consider `NCCc1ccc(CN2CCC(O)(c3cccc(C(F)(F)F)c3)CC2)cc1` [Compound 188], for which the “SI, selective index” value in data set [1] was 4.69. Besides, the CC50 at 3 days in data set [2] was found to be 80.6 µM.
Regarding `Cc1cc2c(cc1CN1CC(CO)C(CN3CCCCCC3)C1)OCCO2` (centres unmarked) [Compound 194], in data set [3], the “effect on frameshift efficiency (in words)” value is listed as “significant reduction in frameshift efficiency” and the “reduction of frameshift efficiency” value worked out at 23%. For the same molecule, in data set [1], the “SI, selective index” value is more than 3.46. The CC50 at 3 days in data set [2] was more than 100 µM.
Turning to `OC1CN(Cc2cccc3cc[nH]c23)CCN(c2ccncc2)C1` (centres unmarked) [Compound 229], the “SI, selective index” value in data set [1] stood at 3.47. Further, the CC50 at 3 days in data set [2] turned out to be 93 µM.
For `OCC1CN(Cc2cc3c(cc2Cl)OCO3)CC1CN1CCCCCC1` (centres unmarked) [Compound 269], in data set [3], the “effect on frameshift efficiency (in words)” value was “nonsignificant reduction of frameshift efficiency; also recorded: reduction in frameshift, though not statistically significant”.
As to `Cc1cc2c(cc1CN1CC(CO)C(CN3CCN(C)CC3)C1)OCCO2` (centres unmarked) [Compound 782], in data set [3], the “effect on frameshift efficiency (in words)” value is “significant and improved reduction of frameshift efficiency compared to 194; also recorded: dose-dependent”; the “reduction of frameshift efficiency” value worked out at 38%.
For `OC1CCCN(C2CCN(Cc3ncc[nH]3)CC2)C1` (centres unmarked) [Compound 21256088], the CC50 at 3 days in data set [2] was more than 100 µM.
Same read-out and setting: under `Cc1nc(CN)cc(N2CCC(C(O)c3nccn3C)CC2)n1` (centres unmarked) [Compound 32807865] stands more than 100 µM.
As for `CN[C@@H]1[C@@H](O)[C@@H](O[C@@H]2[C@@H](O)[C@H](O[C@H]3O[C@H]([C@@H](C)O)[C@@H](O)[C@H](O)[C@H]3N)[C@@H](N)C[C@H]2N)OC[C@]1(C)O` [geneticin], the “inhibition of the −1PRF of SARS-CoV-2 (in words)” value in data set [4] is “specific inhibition of the −1PRF of SARS-CoV-2”.
As for `CCNCC1CCN(c2c(F)cc3c(=O)c(C(=O)O)cn(CC)c3c2F)C1` (centres unmarked) [merafloxacin], the “inhibition of the −1PRF of SARS-CoV-2 (in words)” value in data set [4] was “specific inhibition of the −1PRF of SARS-CoV-2”.
With `Clc1ccc2c(N3CCN(CCCN4CCN(c5ccnc6cc(Cl)ccc56)CC4)CC3)ccnc2c1` [piperaquine, reference compound], in data set [1], the “SI, selective index” value is 0.49. In data set [2], the CC50 at 3 days was found to be 5.66 µM.
